Measured values from PubChem BioAssay AID330 (DTP/NCI, 2004).
Where “and” joins values, the source holds several entries; their conditions need not be identical. Equal entries are not always repeated. Inconclusive results and toxic doses are left out.

System: P388 leukemia ip, CD2F1 mice, survival T/C
Assay: NCI In Vivo Anticancer Drug Screen. Data for tumor model P388 Leukemia (intraperitoneal) in CD2F1 (CDF1) mice
Settings: endpoint: median survival time, higher = longer survival
Outline: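 Mice carrying the transplanted tumor received test compound or vehicle. Survival was recorded in each group, and the value is the treated-group measurement divided by that of the vehicle-treated control group.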

[1] = dose: 60.0 mg/kg/injection, schedule: Q01DX005 (ip), vehicle: Klucel (hydroxypropylcellulose) (HPC)
[2] = dose: 120.0 mg/kg/injection, schedule: Q01DX005 (ip), vehicle: Klucel (hydroxypropylcellulose) (HPC)
[3] = dose: 240.0 mg/kg/injection, schedule: Q01DX005 (ip), vehicle: Klucel (hydroxypropylcellulose) (HPC)
[4] = dose: 100.0 mg/kg/injection, schedule: Q01DX001 (ip), vehicle: Klucel (hydroxypropylcellulose) (HPC)
[5] = dose: 200.0 mg/kg/injection, schedule: Q01DX001 (ip), vehicle: Klucel (hydroxypropylcellulose) (HPC)
[6] = dose: 400.0 mg/kg/injection, schedule: Q01DX001 (ip), vehicle: Klucel (hydroxypropylcellulose) (HPC)
[7] = dose: 50.0 mg/kg/injection, schedule: Q01DX009 (ip), vehicle: saline with Tween-80
[8] = dose: 100.0 mg/kg/injection, schedule: Q01DX009 (ip), vehicle: saline with Tween-80
[9] = dose: 200.0 mg/kg/injection, schedule: Q01DX009 (ip), vehicle: saline with Tween-80
[10] = dose: 100.0 mg/kg/injection, schedule: Q01DX005 (ip), vehicle: saline with Tween-80
[11] = dose: 200.0 mg/kg/injection, schedule: Q01DX005 (ip), vehicle: saline with Tween-80
[12] = dose: 60.0 mg/kg/injection, schedule: Q01DX005 (ip), vehicle: saline with Tween-80
[13] = dose: 120.0 mg/kg/injection, schedule: Q01DX005 (ip), vehicle: saline with Tween-80
[14] = dose: 240.0 mg/kg/injection, schedule: Q01DX005 (ip), vehicle: saline with Tween-80
[15] = dose: 50.0 mg/kg/injection, schedule: Q01DX009 (ip), vehicle: saline
[16] = dose: 100.0 mg/kg/injection, schedule: Q01DX009 (ip), vehicle: saline

With C[S+](C)CCCNC(=O)c1csc(-c2cscn2)n1 the T/C (dose: 6.25 mg/kg/injection, schedule: Q01DX005 (ip), vehicle: water) was 101 % of control, the T/C (dose: 12.5 mg/kg/injection, schedule: Q01DX005 (ip), vehicle: water) was 96 % of control and the T/C (dose: 25.0 mg/kg/injection, schedule: Q01DX005 (ip), vehicle: water) was 101 % of control.

With CC1=C(O)c2cc3c(cc2C(=O)C1=O)OCO3 the T/C [1] was 98 % of control, the T/C [2] was 88 % of control and the T/C [3] was 92 % of control.

With NC1CNC(C(=O)O)=C(CC(=O)O)C1=O (stereo not given) the T/C (dose: 4.25 mg/kg/injection, schedule: Q01DX005 (ip), vehicle: sodium bicarbonate) was 101 % of control, the T/C (dose: 8.5 mg/kg/injection, schedule: Q01DX005 (ip), vehicle: sodium bicarbonate) was 99 % of control and the T/C (dose: 17.0 mg/kg/injection, schedule: Q01DX005 (ip), vehicle: sodium bicarbonate) was 106 % of control. For the same compound, the T/C (dose: 34.0 mg/kg/injection, schedule: Q01DX005 (ip), vehicle: sodium bicarbonate) was 99 % of control.

CC(=O)c1cc(C(O)C(O)C(O)C(O)CO)[nH]c1C (stereo not given) was tested, and the T/C (dose: 50.0 mg/kg/injection, schedule: Q01DX005 (ip), vehicle: saline) was 108 % of control, the T/C (dose: 100.0 mg/kg/injection, schedule: Q01DX005 (ip), vehicle: saline) was 108 % of control and the T/C (dose: 200.0 mg/kg/injection, schedule: Q01DX005 (ip), vehicle: saline) was 110 % of control.

With O=C1OCCSCCOCCSCCOC(=O)c2cncc1c2 the T/C [4] was 99 % of control, the T/C [5] was 113 % of control and the T/C [6] was 109 % of control.

With CC12CC1CCCC2OC(=O)c1cc([N+](=O)[O-])cc([N+](=O)[O-])c1 (stereo not given) the T/C (dose: 100.0 mg/kg/injection, schedule: Q04DX003 (ip), vehicle: saline with Tween-80) was 100 % of control, the T/C (dose: 200.0 mg/kg/injection, schedule: Q04DX003 (ip), vehicle: saline with Tween-80) was 95 % of control and the T/C (dose: 400.0 mg/kg/injection, schedule: Q04DX003 (ip), vehicle: saline with Tween-80) was 98 % of control.

CN(C)/C=N/c1c(CO)c(-c2ccccc2)nn1-c1ccccc1 was tested, and the T/C [7] was 104 % of control, the T/C [8] was 100 % of control and the T/C [9] was 104 % of control. For the same compound, the T/C (dose: 400.0 mg/kg/injection, schedule: Q01DX009 (ip), vehicle: saline with Tween-80) was 105 % of control.

In the case of Cc1cc(N(C)C)nc2cc(N)ccc12, the T/C (dose: 12.5 mg/kg/injection, schedule: Q01DX009 (ip), vehicle: saline with Tween-80) is reported as 103 % of control, the T/C (dose: 25.0 mg/kg/injection, schedule: Q01DX009 (ip), vehicle: saline with Tween-80) is reported as 111 % of control and the T/C [7] is reported as 101 % of control and 89 % of control.

With C=CC1=C(C)C2=NC1=CC1=NC(=CC3=C(C)C4=C(O)C(C(=O)O)C(=C5NC(=C2)C(C)C5CCC(=O)O)C4=N3)C(CC)=C1C (stereo not given) the T/C (dose: 50.0 mg/kg/injection, schedule: Q01DX005 (ip), vehicle: suspension in saline) was 98 % of control, the T/C (dose: 100.0 mg/kg/injection, schedule: Q01DX005 (ip), vehicle: suspension in saline) was 103 % of control and the T/C (dose: 200.0 mg/kg/injection, schedule: Q01DX005 (ip), vehicle: suspension in saline) was 98 % of control.

For CCOC(=O)Nc1ccc2c(c1[N+](=O)[O-])c1cc([N+](=O)[O-])cc([N+](=O)[O-])c1n2CC, the T/C (dose: 50.0 mg/kg/injection, schedule: Q01DX005 (ip), vehicle: saline with Tween-80) was 98 % of control, the T/C [10] was 90 % of control and the T/C [11] was 86 % of control.

In the case of COC1=C(OC)C(=O)C(C(=O)CCCCC(=O)O)=C(C)C1=O, the T/C [12] is reported as 107 % of control, the T/C [13] is reported as 101 % of control and the T/C [14] is reported as 107 % of control.

With Cc1nc(NC(=O)C(C)(C)C)sc1[N+](=O)[O-] the T/C [7] was 101 % of control, the T/C [8] was 92 % of control and the T/C [9] was 94 % of control.

For CNc1c(C(N)=O)nnn1Cc1ccc(OC)cc1, the T/C (dose: 100.0 mg/kg/injection, schedule: Q04DX002 (ip), vehicle: Klucel (hydroxypropylcellulose) (HPC)) was 100 % of control, the T/C (dose: 200.0 mg/kg/injection, schedule: Q04DX002 (ip), vehicle: Klucel (hydroxypropylcellulose) (HPC)) was 100 % of control and the T/C (dose: 400.0 mg/kg/injection, schedule: Q04DX002 (ip), vehicle: Klucel (hydroxypropylcellulose) (HPC)) was 103 % of control.

In the case of COc1cc(/C=C2\SC(=O)N(C)C2=O)ccc1O, the T/C [7] is reported as 104 % of control, the T/C [8] is reported as 90 % of control and the T/C [9] is reported as 87 % of control.

With CCc1nc(N)nc(N)c1-c1ccc(Cl)c(S(=O)(=O)O)c1 the T/C [12] was 103 % of control, the T/C [13] was 98 % of control and the T/C [14] was 98 % of control.

With COc1ccc(C2CC(=O)N(c3ncccc3C)C(=O)C2)cc1 the T/C (dose: 100.0 mg/kg/injection, schedule: Q04DX003 (ip), vehicle: saline) was 93 % of control, the T/C (dose: 200.0 mg/kg/injection, schedule: Q04DX003 (ip), vehicle: saline) was 100 % of control and the T/C (dose: 400.0 mg/kg/injection, schedule: Q04DX003 (ip), vehicle: saline) was 102 % of control.

CCOC(=O)C1OC1(C)c1ccccc1 (stereo not given) was tested, and the T/C [7] was 102 % of control, the T/C [8] was 100 % of control and the T/C [9] was 107 % of control.

COc1ccc(OC)c2c(Cl)cc(NCCCCCCCCNc3cc(Cl)c4c(OC)ccc(OC)c4n3)nc12 was tested, and the T/C (dose: 30.0 mg/kg/injection, schedule: Q01DX005 (ip), vehicle: Klucel (hydroxypropylcellulose) (HPC)) was 101 % of control, the T/C [1] was 101 % of control and the T/C [2] was 100 % of control. For the same compound, the T/C [3] was 100 % of control.

With Cn1c2ccccc2c2oc(CO)cc(=O)c21 the T/C [1] was 95 % of control, the T/C [2] was 89 % of control and the T/C [3] was 91 % of control.

O=S(=O)(O)c1ccc2c(c1)C1C(C3C2C2(Cl)C(Cl)=C(Cl)C3(Cl)C2(Cl)Cl)C2(Cl)C(Cl)=C(Cl)C1(Cl)C2(Cl)Cl (stereo not given) was tested, and the T/C [15] was 108 % of control, the T/C [16] was 108 % of control and the T/C (dose: 200.0 mg/kg/injection, schedule: Q01DX009 (ip), vehicle: saline) was 114 % of control.

In the case of Cc1ccc(Br)c(C(O)(C(F)(F)F)C(F)(F)F)c1, the T/C (dose: 100.0 mg/kg/injection, schedule: Q01DX001 (ip), vehicle: other) is reported as 103 % of control and 104 % of control, the T/C (dose: 200.0 mg/kg/injection, schedule: Q01DX001 (ip), vehicle: other) is reported as 101 % of control and the T/C (dose: 400.0 mg/kg/injection, schedule: Q01DX001 (ip), vehicle: other) is reported as 111 % of control and 108 % of control.

In the case of CC1(C#N)N=C(c2ccccc2)c2ccccc2N1C(=O)Oc1ccccc1 (stereo not given), the T/C [12] is reported as 98 % of control and the T/C [13] is reported as 98 % of control.

For C=C(Cl)C[N+]12CN3CN(CN(C3)C1)C2, the T/C (dose: 12.5 mg/kg/injection, schedule: Q01DX009 (ip), vehicle: saline) was 100 % of control, the T/C (dose: 25.0 mg/kg/injection, schedule: Q01DX009 (ip), vehicle: saline) was 96 % of control and the T/C [15] was 105 % of control. For the same compound, the T/C [16] was 107 % of control.

For c1cnc2c(c1)C1OC(S2)c2cccnc2S1, the T/C [7] was 102 % of control and the T/C [8] was 97 % of control.

With CN(C)c1c2c(oc(=O)c1Cl)-c1ccccc1OCC2 the T/C [1] was 101 % of control, the T/C [2] was 103 % of control and the T/C [3] was 107 % of control.

For CCn1c(Cl)c(/C=N/NC(N)=S)c2cc(/C=N/NC(N)=S)ccc21, the T/C [4] was 98 % of control, the T/C [5] was 97 % of control and the T/C [6] was 89 % of control.

With CN(C=O)C(C(=O)Nc1cccc2c(OC(=O)C(N(C)C=O)(N(C)C=O)N(C)C=O)c(N=Nc3ccc(S(=O)(=O)Nc4nccs4)cc3)cc(N=Nc3ccc(S(=O)(=O)Nc4nccs4)cc3)c12)(N(C)C=O)N(C)C=O (tested in a mixture with another compound) the T/C [10] was 114 % of control, the T/C [11] was 115 % of control and the T/C (dose: 500.0 mg/kg/injection, schedule: Q01DX001 (ip), vehicle: saline with Tween-80) was 109 % of control. The T/C (dose: 1000.0 mg/kg/injection, schedule: Q01DX001 (ip), vehicle: saline with Tween-80) was 105 % of control and the T/C (dose: 2000.0 mg/kg/injection, schedule: Q01DX001 (ip), vehicle: saline with Tween-80) was 113 % of control.

With CN(NC(=O)C(=O)NCc1ccco1)C(=O)Nc1ccccc1 the T/C (dose: 50.0 mg/kg/injection, schedule: Q01DX005 (ip), vehicle: Klucel (hydroxypropylcellulose) (HPC)) was 100 % of control, the T/C (dose: 100.0 mg/kg/injection, schedule: Q01DX005 (ip), vehicle: Klucel (hydroxypropylcellulose) (HPC)) was 99 % of control and the T/C (dose: 200.0 mg/kg/injection, schedule: Q01DX005 (ip), vehicle: Klucel (hydroxypropylcellulose) (HPC)) was 99 % of control.

In the case of COc1cc2c(c(OC)c1OC)-c1ccc(SC)c(=O)cc1[C@@H](NC(=O)CCl)CC2, the T/C (dose: 0.03 mg/kg/injection, schedule: Q01DX009 (ip), vehicle: water) is reported as 124 % of control and the T/C (dose: 0.4 mg/kg/injection, schedule: Q01DX009 (ip), vehicle: water) is reported as 155 % of control.
